Laboratory results from ChEMBL document CHEMBL5528071, “Discovery of Novel Steroid-Based Histamine H3 Receptor Antagonists/Inverse Agonists” (J Med Chem, 2024).

What was measured:
[1] = Displacement of [3H]quinuclidinyl benzilate from Wistar rat cerebral cortex membrane muscarinic AChR assessed as inhibition constant by liquid scintillation counter
[2] = target: Voltage-gated inwardly rectifying potassium channel KCNH2 (Homo sapiens, UniProt Q12809); assay: Inhibition of human ERG expressed in CHO cells incubated for 7 to 10 mins by automated whole-cell patch clamp recordings; format: toxicity, cell-based
Chain of Voltage-gated inwardly rectifying potassium channel KCNH2 (Q12809 whole entry): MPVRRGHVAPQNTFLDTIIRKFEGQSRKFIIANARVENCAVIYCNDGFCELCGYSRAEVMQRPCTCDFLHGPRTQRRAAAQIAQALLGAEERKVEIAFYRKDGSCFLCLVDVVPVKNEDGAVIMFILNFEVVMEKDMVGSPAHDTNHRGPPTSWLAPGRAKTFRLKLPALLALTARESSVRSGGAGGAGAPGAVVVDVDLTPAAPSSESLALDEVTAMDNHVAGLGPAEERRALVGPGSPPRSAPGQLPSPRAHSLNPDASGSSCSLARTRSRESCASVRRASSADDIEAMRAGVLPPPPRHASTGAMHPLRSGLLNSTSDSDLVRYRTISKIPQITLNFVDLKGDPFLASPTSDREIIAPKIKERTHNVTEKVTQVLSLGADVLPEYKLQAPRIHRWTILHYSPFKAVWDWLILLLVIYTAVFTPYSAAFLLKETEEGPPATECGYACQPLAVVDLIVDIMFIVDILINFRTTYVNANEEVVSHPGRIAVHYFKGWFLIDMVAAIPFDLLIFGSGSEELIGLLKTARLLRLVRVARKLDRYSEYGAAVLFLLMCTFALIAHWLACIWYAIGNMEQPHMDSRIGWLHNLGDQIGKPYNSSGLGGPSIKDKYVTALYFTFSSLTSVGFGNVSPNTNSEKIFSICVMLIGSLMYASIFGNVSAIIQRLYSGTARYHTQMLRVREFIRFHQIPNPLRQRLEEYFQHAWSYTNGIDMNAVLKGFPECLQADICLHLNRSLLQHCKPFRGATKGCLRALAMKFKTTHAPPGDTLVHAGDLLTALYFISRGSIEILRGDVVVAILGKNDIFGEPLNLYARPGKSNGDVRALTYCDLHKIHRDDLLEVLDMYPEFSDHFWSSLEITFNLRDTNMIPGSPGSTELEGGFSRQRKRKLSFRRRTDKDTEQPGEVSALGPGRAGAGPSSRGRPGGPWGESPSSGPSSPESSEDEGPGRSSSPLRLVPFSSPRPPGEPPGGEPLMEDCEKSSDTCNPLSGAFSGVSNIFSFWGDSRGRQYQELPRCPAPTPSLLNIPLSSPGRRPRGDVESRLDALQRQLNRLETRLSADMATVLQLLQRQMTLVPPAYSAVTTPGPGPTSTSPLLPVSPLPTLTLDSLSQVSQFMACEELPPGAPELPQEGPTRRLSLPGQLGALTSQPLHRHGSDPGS

[3] = In vivo antagonist activity at Histamine H3 receptor in Wistar rat assessed as reduction in imetit-induced water intake pretreated with compound for 30 mins followed by imetit administration and measured after 30 mins by dipsogenia test; format: functional; conditions: 1 h, time 60 min
Histamine H3 receptor [4] = target: T1, Histamine H3 receptor (Homo sapiens, UniProt Q9Y5N1)
T1 sequence (Q9Y5N1 whole entry): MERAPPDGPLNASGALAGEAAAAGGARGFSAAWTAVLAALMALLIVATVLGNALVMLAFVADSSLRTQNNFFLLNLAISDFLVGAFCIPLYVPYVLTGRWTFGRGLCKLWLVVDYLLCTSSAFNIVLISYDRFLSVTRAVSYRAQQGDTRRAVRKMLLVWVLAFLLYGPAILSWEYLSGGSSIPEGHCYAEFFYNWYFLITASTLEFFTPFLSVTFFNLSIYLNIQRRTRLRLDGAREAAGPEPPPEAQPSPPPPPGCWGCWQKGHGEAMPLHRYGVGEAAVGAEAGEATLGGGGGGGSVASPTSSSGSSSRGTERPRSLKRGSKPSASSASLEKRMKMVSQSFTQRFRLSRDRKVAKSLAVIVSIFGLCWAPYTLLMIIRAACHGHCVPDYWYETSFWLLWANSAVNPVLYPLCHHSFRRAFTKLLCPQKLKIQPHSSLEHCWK
Description: Displacement of N-alpha-[methyl-3H]methylhistamine dihydrochloride from human Histamine H3 receptor expressed in CHO-K1 cell membrane assessed as inhibition constant incubated for 30 mins by liquid scintillation analyzer

Histamine H3 receptor [5] = target: Histamine H3 receptor (Rattus norvegicus, UniProt Q9QYN8)
Chain of Histamine H3 receptor (Rattus norvegicus, UniProt Q9QYN8) (Q9QYN8 whole entry): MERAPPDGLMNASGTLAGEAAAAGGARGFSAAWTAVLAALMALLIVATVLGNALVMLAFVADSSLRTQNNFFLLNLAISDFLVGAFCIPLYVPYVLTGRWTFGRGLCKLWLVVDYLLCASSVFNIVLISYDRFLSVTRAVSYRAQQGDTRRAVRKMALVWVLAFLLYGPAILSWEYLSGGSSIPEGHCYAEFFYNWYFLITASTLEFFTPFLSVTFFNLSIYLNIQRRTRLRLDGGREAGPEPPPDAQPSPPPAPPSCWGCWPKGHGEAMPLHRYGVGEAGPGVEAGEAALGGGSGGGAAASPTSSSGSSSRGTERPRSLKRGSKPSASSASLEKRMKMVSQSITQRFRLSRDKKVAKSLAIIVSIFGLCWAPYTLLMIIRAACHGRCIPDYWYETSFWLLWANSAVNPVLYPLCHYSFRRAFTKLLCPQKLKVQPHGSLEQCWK
Description: Displacement of N-alpha-[methyl-3H]-methylhistamine dihydrochloride from Sprague-Dawley rat cerebral cortex membrane Histamine H3 receptor assessed as inhibition constant incubated for 30 mins by scintillation counter

Rattus norvegicus [6] = species: Rattus norvegicus; assay: Displacement of [3H]quinuclidinyl benzilate from Wistar rat cerebral cortex membrane muscarinic AChR at 1 uM by liquid scintillation counter relative to control; format: cell membranes
Histamine H3 receptor [7] = target: T1, Histamine H3 receptor; assay: Antagonist activity at human Histamine H3 receptor
hERG (KCNH2) [8] = target: T2, hERG (KCNH2) (Homo sapiens, UniProt Q12809); assay: Inhibition of human ERG expressed in CHO cells at 1 uM incubated for 7 to 10 mins by automated whole-cell patch clamp recordings relative to control; conditions: CHO cells expressing human ERG
T2 sequence (Q12809 whole entry): as the sequence (Q12809 whole entry) above

hERG (KCNH2) [9] = target: T2, hERG (KCNH2); assay: Inhibition of human ERG expressed in CHO cells at 3 uM incubated for 7 to 10 mins by automated whole-cell patch clamp recordings relative to control; conditions: CHO cells expressing human ERG
Mus musculus = assay: Cognitive enhancing effect in scopolamine-induced NMRI mouse model assessed as reversal of exploration time by measuring minimum effective dose preadministered orally for 30 mins followed by scopolamine administration by place recognition test; format: functional; conditions: 0.5 h, route po, read-out: MED
[10] = Bioavailability in Wistar rat at 10 mg/kg, po or 3 mg/kg, iv measured after 24 hrs by HPLC-MS/MS analysis; format: ADME, organism-based; conditions: in vivo
[11] = Ratio of drug concentration in Hannover Wistar rat brain to plasma administered orally for 2 days and measured 1 hrs post last dose by HPLC-MS/MS analysis; format: ADME; conditions: route po, read-out: BPR
Rattus norvegicus [12] = assay: Cognitive enhancing effect in Hannover Wistar rat model of delay-induced natural forgetting assessed as reversal of exploration time by measuring minimal effective dose orally administered for 30 mins by novel object recognition test; format: functional; conditions: 0.5 h, route po, read-out: MED

| Compound | Ki (Histamine H3 receptor [4]) [nM] | Ki (Histamine H3 receptor [5]) [nM] | IC50 [2] [nM] | ED50 [3] [mg/kg] | also measured |
| --- | --- | --- | --- | --- | --- |
| C[C@@H]1CCCN1CCCOc1ccc2c(c1)CC[C@H]1C3=CCC(=O)N(C)[C@@]3(C)CC[C@H]21 | 1.1 | 5.7 | 8600 | 0.22 | Ki [1]: 1500 nM |
| C[C@]12CC[C@@H]3c4ccc(OCCCN5CCCC5)cc4CC[C@H]3[C@@H]1CCCN2 | 1.5 | 30.2 |  |  | Activity (Rattus norvegicus [6]): 36% |
| NC(=O)c1ccc([C@@H]2C[C@H]2C(=O)N2CCN(C3CCC3)CC2)cc1 |  |  |  |  | Ki (Histamine H3 receptor [7]): 0.501 nM |
| C[C@@H]1CCCN1CCCOc1ccc2c(c1)CC[C@@H]1[C@@H]2CC[C@@]2(C)[C@H]1CCCN2C(=O)c1ccccc1 | 11.6 |  |  |  |  |
| C[C@]12CC[C@@H]3c4ccc(OCCCN5CCCC5)cc4CC[C@H]3[C@@H]1CCCN2C=O | 1.8 | 21.8 | 6000 |  | Activity (Rattus norvegicus [6]): 13% |
| CN1CCC[C@H]2[C@@H]3CCc4cc(OCCCN5CCCC5)ccc4[C@H]3CC[C@@]21C | 0.9 | 5.1 |  |  | Activity (Rattus norvegicus [6]): 69% |
| C[C@@H]1CCCN1CCCOc1ccc2c(c1)CC[C@@H]1[C@@H]2CC[C@@]2(C)[C@H]1CCCN2C(=O)C(C)(C)C | 7.8 | 55.2 |  |  | Ki [1]: 816 nM |
| C[C@]12CC[C@@H]3c4ccc(OCCCN5CCCC5)cc4CC[C@H]3[C@@H]1CCCN2CCO | 3.4 | 10.5 |  |  |  |
| CCC(=O)N1CCC[C@H]2[C@@H]3CCc4cc(OCCCN5CCC[C@H]5C)ccc4[C@H]3CC[C@@]21C | 8 | 37.3 | > 10000 |  | Ki [1]: 1700 nM |
| C[C@@H]1CCCN1CCCOc1ccc2c(c1)CC[C@@H]1[C@@H]2CC[C@@]2(C)NC(=O)CC[C@@H]12 |  |  | > 30000 |  |  |
| C[C@@H]1CCCN1CCCOc1ccc2c(c1)CC[C@@H]1[C@@H]2CC[C@]2(C)NC(=O)CC[C@H]12 |  |  | 22000 |  |  |
| CC(=O)N[C@]12CCC(=O)N[C@@]1(C)CC[C@@H]1c3ccc(OCCCN4CCC[C@H]4C)cc3CC[C@H]12 | 15.1 | 14.5 |  |  | inhibition at 1 µM (hERG (KCNH2) [8]): 3%; inhibition at 3 µM (hERG (KCNH2) [9]): 8% |
| CN1CCC[C@H]2[C@@H]3CC[C@H]4C[C@@H](OC(=O)CCN5CCCC5)CC[C@]4(C)[C@H]3CC[C@@]21C | 10.6 |  |  |  | Activity (Rattus norvegicus [6]): 44% |
| C[C@@H]1CCCN1CCCOc1ccc2c(c1)CC[C@H]1C3=CCC(=O)N[C@@]3(C)CC[C@H]21 |  | 6.8 | 18700 | 0.12 | minimal effective dose (Mus musculus): 0.3 mg/kg; bioavailability [10]: 63.8%; Kp at 49 h [11]: 0.6 |
| C[C@@H]1CCCN1CCCOc1ccc2c(c1)CC[C@@H]1[C@@H]2CC[C@@]2(C)[C@@H]1CCC(=O)N2C |  |  | 9600 | 0.23 |  |
| C[C@@H]1CCCN1CCCOc1ccc2c(c1)CC[C@@H]1[C@@H]2CC[C@]2(C)NC(=O)CC[C@@H]12 |  |  | 3700 |  |  |
| C[C@@H]1CCCN1CCCOc1ccc2c(c1)CC[C@@H]1[C@@H]2CC[C@@]2(C)[C@H]1CCC(=O)N2C |  |  | 9900 | 0.4 | minimal effective dose (Mus musculus): 0.1 mg/kg; minimal effective dose (Rattus norvegicus [12]): 0.3 mg/kg; bioavailability [10]: 63.7%; Kp at 49 h [11]: 1.4 |
| C[C@@H]1CCCN1CCCOc1ccc2c(c1)CC[C@@H]1[C@@H]2CC[C@@]2(C)[C@H]1CCCN2C(=O)C1CCOC1 (some centres not stated) |  | 96 |  |  |  |

Now from value to compound, other results behind:

| Ki (Histamine H3 receptor [4]) [nM] | Ki (Histamine H3 receptor [5]) [nM] | Compound | IC50 [2] [nM] | ED50 [3] [mg/kg] | also measured |
| --- | --- | --- | --- | --- | --- |
| 8.6 | 20.5 | C[C@@H]1CCCN1CCCOc1ccc2c(c1)CC[C@H]1[C@@H]3[C@H](C#N)CC(=O)N[C@@]3(C)CC[C@H]21 | 24000 | 3.6 | Ki [1]: 2400 nM |
| 4.9 | 9.4 | C[C@@H]1CCCN1CCCOc1ccc2c(c1)CC[C@H]1[C@@H]3[C@@H]4C[C@@H]4C(=O)N[C@@]3(C)CC[C@H]21 | 11700 | 1.5 |  |
| 2.2 | 24.8 | C[C@@H]1CC(=O)N[C@@]2(C)CC[C@@H]3c4ccc(OCCCN5CCC[C@H]5C)cc4CC[C@H]3[C@H]12 | 11000 | 1.3 | Ki [1]: 2500 nM |
| 4.1 | 9 | C[C@@H]1C[C@H]2[C@@H]3CCc4cc(OCCCN5CCC[C@H]5C)ccc4[C@H]3CC[C@]2(C)NC1=O | 14500 | 0.86 | Ki [1]: 2700 nM |
| 1.5 | 3.8 | C[C@@H]1C[C@@H]2[C@@H]3CCc4cc(OCCCN5CCC[C@H]5C)ccc4[C@H]3CC[C@]2(C)N(C)C1=O | 2700 |  |  |
| 6.9 | 15.9 | CC(=O)N1CCC[C@H]2[C@@H]3CCc4cc(OCCCN5CCC[C@H]5C)ccc4[C@H]3CC[C@@]21C | 10000 |  |  |
| 2.4 | 2.2 | C[C@@H]1CC(=O)N(C)[C@@]2(C)CC[C@@H]3c4ccc(OCCCN5CCC[C@H]5C)cc4CC[C@H]3[C@H]12 | 8800 | 0.48 |  |
| 2 | 7.2 | C[C@@H]1CCCN1CCCOc1ccc2c(c1)CC[C@H]1[C@@H]3[C@H](C#N)CC(=O)N(C)[C@@]3(C)CC[C@H]21 | 10400 | 0.78 |  |
| 2.4 | 9.9 | C[C@@H]1CCCN1CCCOc1ccc2c(c1)CC[C@H]1[C@H]3[C@@H]4C[C@@H]4C(=O)N[C@@]3(C)CC[C@H]21 | 5000 | 0.33 | Ki [1]: 3600 nM |
| 1 | 3.3 | C[C@@H]1CCCN1CCCOc1ccc2c(c1)CC[C@H]1[C@@H]3[C@@H]4C[C@@H]4C(=O)N(C)[C@@]3(C)CC[C@H]21 | 7700 | 1.4 |  |
